Reference: publication PMC5617480 (Oncotarget, 2017)

Columns and labels:
[1] = test system: HL-7702 normal cells; test: Cytotoxicity assay (MTT assay); format: cell-based, human; settings: for Inhibitory rates (%): HL-7702, 20 μM
Experimental: (§1) To evaluate the cytotoxicity of chiral platinum(II) complexes, HeLa, BEL-7402, MGC80-3, BEL-7404, A549, Hep-G2 and HL-7702 cells (normal cells) were treated with varying concentrations of complexes 1–6 and cisplatin (positive control, cisplatin was dissolved at a concentration of 1.0 mM in 0.154 M NaCl) for 24 h and 48 h. The cell viability of each experimental group was examined by MTT assays. […] [61, 62].
(§2) Materials 100 U/mL penicillin and 100 μg/mL streptomycin in 25 cm2 culture flasks at 37 °C humidified atmosphere with Tris, RNase A, and propidium iodide (PI) were 5% CO2. All cells to be tested in the following assays have purchased from Sigma. The antibody of mutp53, a passage number of 3-6. […]
(§3) were purchased from Abcam. Unless otherwise stated, BEL-7404, A549, and Hep-G2 cancer-cell lines and HL-spectroscopic titration experiments were carried out in 7702 normal cells) per well were seeded in triplicate in TBS (10 mM pH7.35 Tris-HCl, containing 100 mM KCl). 96-well plates and incubated for 24 h at 37 °C and 5.0% The total RNA isolation kit and the two-step RT-PCR kit CO2/95.0% air. Then graded amounts of compound were purchased from TIANGEN. DNA oligomers (highly added to the wells in 10.0 μL of FBS free culture medium polymerized stored at 4 °C; long-term storage at −20 °C) and the plates were incubated in a 5% CO2 humidified are listed in Supplementary Table 1 and were obtained from atmosphere for 24 h and 48 h. Six replica wells were used Shanghai Sangon Biological Engineering Technology & as controls. Each the cells were grew for 12.0 h before Services (Shanghai, China). All tumor cell lines (HeLa, treatment to reach 70.0% confluency and 20.0 μL of tested BEL-7402, MGC80-3, BEL-7404, A549, Hep-G2 cancer- various concentrations of compounds were added to each cell lines and normal liver cell line HL-7702) were obtained well. The final concentration of the tested complexes from the Shanghai Institute for Biological Science (China). or compounds were kept at 1.25, 2.5, 5, 10, 20 μM, Stock solutions of all the compounds (2.0 mM) were made respectively. After 24 h or 48 h of culture, 0.1 mg of in DMSO, and further dilutions to working concentrations MTT (in 20 μL of PBS) was added to each well, and cells were made with corresponding buffer. were incubated at 37 °C for 6 h. The formed formazan crystals were then dissolved in 100 μL of DMSO and the Instrumentation absorbance was read by enzyme labeling instrument with Infrared spectra were obtained on a Perkine Elmer 490/630 nm double wavelength measurement. The final FT-IR Spectrometer. Elemental analyses (C, H, N) IC50 values were calculated by the Bliss method (n = 5). were carried out on a Perkin Elmer Series II CHNS/O All tests were repeated in at least three independent trials. […]

[2] = test system: Pu27 (c-myc) G4; set-up: method as in earlier work; settings: ref [1], cited from earlier work
[3] = test system: HeLa cells; test: Cytotoxicity assay (MTT assay); format: cell-based, human; settings: for Inhibitory rates (%): 20 μM
Experimental: as §1, with “62]. […] Therefore, complex 6 (10 μM) was selected for cell apoptosis analysis by flow-cytometry, RT-PCR, caspase-3/9 activation assays, western blot and transfection assays in BEL-7404 cells for 24 h. In addition, this observed difference in in vitro cytotoxicity between the three complexes 4–6 could be due to the influence of the chirality of the FOA ligand [68]. […]” for “62].”
as §2, §3
(§4) 10.0 min. The cell pellet obtained was dissolved in 1.0 M
(§5) The region between 200 and 400 nm was scanned for each NaOH (1.0 mL) and diluted with 2.0% (v/v) HNO3 (5.0 sample. MTT assay was performed on M1000 microplate mL) for determining whole cell Pt content. Another set reader (Tecan Trading Co. Ltd, Shanghai, China). Cell was treated similarly, nuclear proteins, nuclear fraction, cycle and apoptosis analysis was recorded on FACS Aria cytoplasmic protein, membrane proteins and other fraction II Flow Cytometer (BD Biocsiences, San Jose, USA). were isolated as described by Chen and Schreiber et al. And the each final solution was made up to 5.0 mL
(§6) Cytotoxicity assay (MTT assay) using 2.0% (v/v) HNO3. The amount of Pt taken up by the cells was determined by ICP-MS. The instrument was […]

[4] = test system: A549 cells; test: Cytotoxicity assay (MTT assay); format: cell-based, human; settings: for Inhibitory rates (%): A549, 20 μM
Experimental: as §1, with “62]. […] Therefore, complex 6 (10 μM) was selected for cell apoptosis analysis by flow-cytometry, RT-PCR, caspase-3/9 activation assays, western blot and transfection assays in BEL-7404 cells for 24 h. In addition, this observed difference in in vitro cytotoxicity between the three complexes 4–6 could be due to the influence of the chirality of the FOA ligand [68]. […]” for “62].”
as §2, §3, §4, §5, §6

[5] = test system: Hep-G2 cells; test: Cytotoxicity assay (MTT assay); format: cell-based, human; settings: for Inhibitory rates (%): Hep-G2, 20 μM
Experimental: as §1, with “62]. […] Therefore, complex 6 (10 μM) was selected for cell apoptosis analysis by flow-cytometry, RT-PCR, caspase-3/9 activation assays, western blot and transfection assays in BEL-7404 cells for 24 h. In addition, this observed difference in in vitro cytotoxicity between the three complexes 4–6 could be due to the influence of the chirality of the FOA ligand [68]. […]” for “62].”
as §2, §3, §4, §5, §6

[6] = test system: MGC80-3 cells; test: Cytotoxicity assay (MTT assay); format: cell-based, human; settings: for Inhibitory rates (%): MGC80-3, 20 μM
Experimental: as §1, with “62]. […] Therefore, complex 6 (10 μM) was selected for cell apoptosis analysis by flow-cytometry, RT-PCR, caspase-3/9 activation assays, western blot and transfection assays in BEL-7404 cells for 24 h. In addition, this observed difference in in vitro cytotoxicity between the three complexes 4–6 could be due to the influence of the chirality of the FOA ligand [68]. […]” for “62].”
as §2, §3, §4, §5, §6

[7] = test system: BEL-7404 cells; test: Cytotoxicity assay (MTT assay); format: cell-based, human; settings: for Inhibitory rates (%): BEL-7404, 20 μM
Experimental: as §1, with “62]. […] Therefore, complex 6 (10 μM) was selected for cell apoptosis analysis by flow-cytometry, RT-PCR, caspase-3/9 activation assays, western blot and transfection assays in BEL-7404 cells for 24 h. In addition, this observed difference in in vitro cytotoxicity between the three complexes 4–6 could be due to the influence of the chirality of the FOA ligand [68]. […]” for “62].”
as §2, §3, §4, §5, §6

[8] = test system: BEL-7402 cells; test: Cytotoxicity assay (MTT assay); format: cell-based, human; settings: for Inhibitory rates (%): BEL-7402, 20 μM
Experimental: as §1, with “62]. […] Therefore, complex 6 (10 μM) was selected for cell apoptosis analysis by flow-cytometry, RT-PCR, caspase-3/9 activation assays, western blot and transfection assays in BEL-7404 cells for 24 h. In addition, this observed difference in in vitro cytotoxicity between the three complexes 4–6 could be due to the influence of the chirality of the FOA ligand [68]. […]” for “62].”
as §2, §3, §4, §5, §6

Molecule	selectivity index factor, IC50 (normal HL-7702 cells)/IC50 (BEL-7404 tumor cells) ([1]; 24 h)	Inhibitory rates (%) ([1]; 24 h)	Inhibitory rates (%) ([1]; 48 h)	IC50 ([1]; HL-7702, 24 h) [µM]	Inhibitory rates (%) ([3]; 24 h)	Inhibitory rates (%) ([3]; 48 h)	IC50 ([3]; 24 h) [µM]	Inhibitory rates (%) ([4]; 24 h)	Inhibitory rates (%) ([4]; 48 h)	IC50 ([4]; A549, 24 h) [µM]	Inhibitory rates (%) ([5]; 24 h)	Inhibitory rates (%) ([5]; 48 h)	IC50 ([5]; Hep-G2, 24 h) [µM]	Inhibitory rates (%) ([6]; 24 h)	Inhibitory rates (%) ([6]; 48 h)	IC50 ([6]; MGC80-3, 24 h) [µM]	Inhibitory rates (%) ([7]; 24 h)	Inhibitory rates (%) ([7]; 48 h)	IC50 ([7]; BEL-7404, 24 h) [µM]	Inhibitory rates (%) ([8]; 24 h)	other results
O=C(NCC(O)CO)c1cnc2c3c(cccc13)-c1ccccc1C2=O.[Cl-].[Cl-].[Pt+2] (racemic) [ligand 1, R/S-(±)-FOA]	3.4	11.0 ± 1.6	15.2 ± 0.6	141 ± 1.7	25.6± 1.2	33.6 ± 1.3	69.3 ± 1.3	32.6 ± 0.4	48.4 ± 1.6	45.8 ± 0.3	21.3 ± 1.9	27.8 ± 0.8	73.5 ± 2	18.6 ± 0.3	24.9 ± 2.2	87.2 ± 0.5	35.9 ± 0.7	51.9 ± 2.7	41.2 ± 0.6	30.5 ± 1.4	ctDNADC50/Pu27DC50 ([2]; FID selectivity ratio): 39.24; Pu27DC50 ([2]; FID): 1.63 µM; Inhibitory rates (%) ([8]; 48 h): 38.9 ± 1.6%; IC50 ([8]; BEL-7402, 24 h): 54.9 ± 1.2 µM
N.N.[Cl][Pt][Cl] [cisplatin, reference compound]	0.8	59.6 ± 1.2	73.6 ± 2.3	19.8 ± 1.3	64.3 ± 1.4	80.6 ± 0.9	15.8 ± 1.2	48.6 ± 0.4	51.1 ± 3.4	21.3 ± 0.7	51.6 ± 0.6	60.6 ± 1.0	19.5 ± 0.5	61.5 ± 1.2	71.4 ± 1.5	16.3 ± 1.3	45.5 ± 2.1	54.2 ± 1.4	24.8 ± 1.8	55.4 ± 0.9	selectivity index factor, IC50 (normal HL-7702 cells)/IC50 (BEL-7404 tumor cells) ([1]; 48 h): 1.0; IC50 ([1]; HL-7702, 48 h): 15.6 ± 0.3 µM; IC50 ([3]; 48 h): 5.8 ± 0.9 µM; IC50 ([4]; A549, 48 h): 17 ± 2.3 µM; IC50 ([5]; Hep-G2, 48 h): 9.5 ± 0.4 µM; IC50 ([6]; MGC80-3, 48 h): 5.4 ± 0.5 µM; IC50 ([7]; BEL-7404, 48 h): 15.8 ± 0.7 µM; Inhibitory rates (%) ([8]; 48 h): 65.7 ± 1.2%; IC50 ([8]; BEL-7402, 24 h): 17.5 ± 0.6 µM; IC50 ([8]; BEL-7402, 48 h): 13.5 ± 0.9 µM
cis-[PtCl2(R-(+)-FOA)] [complex 5]	3.6	30.6 ± 2.1	37.5 ± 5.3	80.1 ± 1.8	8.6 ± 1.5	9.9 ± 0.7	168.6 ± 1.4	28.9 ± 0.5	35.9 ± 2.6	56.3 ± 0.7	16.5 ± 1.4	23.3 ± 0.5	93.4 ± 1.2	11.3 ± 0.4	19.8 ± 1.8	135.1 ± 0.5	46.1 ± 1.1	55.9 ± 2.7	22.5 ± 1.3	35.6 ± 2.1	selectivity index factor, IC50 (normal HL-7702 cells)/IC50 (BEL-7404 tumor cells) ([1]; 48 h): 3.9; IC50 ([1]; HL-7702, 48 h): 55.8 ± 3.1 µM; IC50 ([3]; 48 h): 64.2 ± 0.2 µM; IC50 ([4]; A549, 48 h): 17.2 ± 0.1 µM; IC50 ([5]; Hep-G2, 48 h): 35.7 ± 1.5 µM; IC50 ([6]; MGC80-3, 48 h): 37.4 ± 1.2 µM; IC50 ([7]; BEL-7404, 48 h): 14.5 ± 0.5 µM; Inhibitory rates (%) ([8]; 48 h): 42.1 ± 0.7%; IC50 ([8]; BEL-7402, 24 h): 42.3 ± 1.9 µM; IC50 ([8]; BEL-7402, 48 h): 38.4 ± 1.4 µM
cis-[PtCl2(R/S-(±)-FOA)] [complex 4]	6.8	28.3 ± 1.7	31.6 ± 2.4	85.4 ± 1.5	18.5 ± 0.7	24.1 ± 2.1	90.5 ± 0.7	57.6 ± 0.6	77.8 ± 0.1	18.6 ± 0.5	20.8 ± 0.3	27.6 ± 1.1	84.6 ± 0.4	22.0 ± 1.9	24.9 ± 1.4	80.6 ± 2	67.3 ± 1.3	80.0 ± 4.3	12.5 ± 1.1	41.2 ± 0.6	selectivity index factor, IC50 (normal HL-7702 cells)/IC50 (BEL-7404 tumor cells) ([1]; 48 h): 6.7; IC50 ([1]; HL-7702, 48 h): 58.5 ± 5.5 µM; IC50 ([3]; 48 h): 38.1 ± 1.5 µM; IC50 ([4]; A549, 48 h): 9.1 ± 0.6 µM; IC50 ([5]; Hep-G2, 48 h): 29.1 ± 0.8 µM; IC50 ([6]; MGC80-3, 48 h): 32.1 ± 1.8 µM; IC50 ([7]; BEL-7404, 48 h): 8.7 ± 0.1 µM; Inhibitory rates (%) ([8]; 48 h): 48.6 ± 1.3%; IC50 ([8]; BEL-7402, 24 h): 32.5 ± 0.5 µM; IC50 ([8]; BEL-7402, 48 h): 20.7 ± 0.9 µM
cis-[PtCl2(S-(–)-FOA)] [complex 6]	11.8	20.7 ± 1.6	33.9 ± 2.2	119 ± 1.5	21.1 ± 0.9	25.1 ± 1.4	78.2 ± 0.9	65.3 ± 1.3	84.7 ± 2.2	15.3 ± 1.2	30.2 ± 1.6	39.3 ± 2.2	50.1 ± 1.8	25.1 ± 0.5	26.5 ± 1.1	72.8 ± 0.4	70.9 ± 0.7	81.3 ± 0.4	10.1 ± 0.6	50.5 ± 1.6	selectivity index factor, IC50 (normal HL-7702 cells)/IC50 (BEL-7404 tumor cells) ([1]; 48 h): 10.7; IC50 ([1]; HL-7702, 48 h): 84.2 ± 1.2 µM; IC50 ([3]; 48 h): 31.8 ± 0.7 µM; IC50 ([4]; A549, 48 h): 8.2 ± 0.5 µM; IC50 ([5]; Hep-G2, 48 h): 17.7 ± 1.2 µM; IC50 ([6]; MGC80-3, 48 h): 31.5 ± 1.7 µM; IC50 ([7]; BEL-7404, 48 h): 7.9 ± 0.3 µM; Inhibitory rates (%) ([8]; 48 h): 58.4 ± 2.1%; IC50 ([8]; BEL-7402, 24 h): 20.6 ± 1.5 µM; IC50 ([8]; BEL-7402, 48 h): 15.3 ± 2.2 µM
